A short description of data set [1]: in vivo. Particulars: BALB/c, mouse, plasma, po, 50 mg/kg.
Description: (§1) After 0.5, 1, 2, 4, and 6 hours from administration, blood of each mouse was collected from the retro-orbital sinus, and the concentration of compound 1 in plasma was measured.
A short description of data set [2]: Differential scanning calorimetry (DSC), phase transition on heating. As to conditions: when the temperature was increased (10° C./min).
Description: DSC measurement was performed under the following conditions.
Device: TA Instruments Q1000
Sample Container: made of aluminum
Temperature Increase Rate: 10° C./min
Atmospheric Gas: Nitrogen
Nitrogen Gas Flow: 50 ml/min
Data set [3] is described as follows: Oral absorbability: plasma concentration of compound 1 after oral administration to mice. Particulars: BALB/c mice, 50 mg/kg, suspension in 0.5% HPMC aqueous solution, plasma sampled 0.5-6 hours.
Description: as §1

Molecules are shown by their SMILES.

Take `C=CC(=O)N1CC[C@H](n2nc(C#Cc3cc(OC)cc(OC)c3)c3c(N)ncnc32)C1` [Crystal I, (S)-1-(3-(4-amino-3-((3,5-dimethoxyphenyl)ethynyl)-1H-pyrazolo[3,4-d]pyrimidin-1-yl)-1-pyrrolidinyl)-2-propen-1-one]: the AUC in data set [1] was found to be 9.82 µM·h. Besides, the “peak that suggests a phase transition in DSC measurement” value in data set [2] was “did not exhibit a peak that suggests a phase transition”.
`C=CC(=O)N1CC[C@H](n2nc(C#Cc3cc(OC)cc(OC)c3)c3c(N)ncnc32)C1` [Crystal II, (S)-1-(3-(4-amino-3-((3,5-dimethoxyphenyl)ethynyl)-1H-pyrazolo[3,4-d]pyrimidin-1-yl)-1-pyrrolidinyl)-2-propen-1-one]: in data set [2], the “peak that suggests a phase transition in DSC measurement” value is reported as “did not exhibit a peak that suggests a phase transition”. Also, the AUC in data set [3] turned out to be 4.99 µM·h.

Usually AUC stands for the area under the concentration-time curve, a measure of exposure. A lower AUC goes with low exposure.
